Experimental data taken from the NIST ThermoML archive (doi:10.1021/je049932z).

Columns and labels:
[1] = 293.15 K
[2] = wn = mass fraction of the nth substance listed; conditions: 293.15 K; for mass density / viscosity: 101.3 kPa, Liquid

CCOCCOCCOCC [diethylene glycol diethyl ether]
Conditions	surface tension liquid-gas [mN/m]
[1]	29.27

[1], 101.3 kPa, Liquid
Conditions	mass density [kg/m3]	viscosity [mPa·s]
–	907.3	1.346

CCOCCOCCOCC [diethylene glycol diethyl ether] + O
[2]
Conditions	mass density [kg/m3]	surface tension liquid-gas [mN/m]	viscosity [mPa·s]
w1 = 0.0033	–	69.73	–
w1 = 0.00984	–	66.53	–
w1 = 0.01771	–	56.82	–
w1 = 0.03207	–	45.57	–
w1 = 0.05896	996.7	36.39	1.18
w1 = 0.07683	996.9	–	1.265
w1 = 0.1038	997.1	–	1.451
w1 = 0.1227	997.2	–	1.551
w1 = 0.1425	998.2	–	1.701
w1 = 0.1611	998.5	35.71	1.839
w1 = 0.1951	998.6	–	2.149
w1 = 0.2207	999.3	–	2.414
w1 = 0.2547	999.1	34.92	2.707
w1 = 0.2828	999.8	–	2.961
w1 = 0.3185	999.5	–	3.302
w1 = 0.3578	999.1	34.11	3.637
w1 = 0.3773	996.6	–	3.781
w1 = 0.4231	994.6	–	4.088
w1 = 0.4474	993.1	32.3	4.218
w1 = 0.5151	989	–	4.462
w1 = 0.5769	981.1	30.54	4.452
w1 = 0.6029	979.1	–	4.403
w1 = 0.6385	973.1	30.21	4.27
w1 = 0.6814	966.4	–	4.033
w1 = 0.7256	960.1	–	3.741
w1 = 0.7794	949.6	30.46	3.189
w1 = 0.8549	940.7	30.2	2.599
w1 = 0.9195	926.2	–	1.943
w1 = 0.9401	920.7	30.01	1.75
w1 = 0.9769	912.8	–	1.467
w1 = 1	907.3	29.27	1.346

O [water]
Conditions	surface tension liquid-gas [mN/m]
[1]	72.75

Conditions	viscosity [mPa·s]
[1], 101.3 kPa, Liquid	1.002

O [water] + CCOCCOCCOCC
[2], w2 = 0
Conditions	mass density [kg/m3]	surface tension liquid-gas [mN/m]	viscosity [mPa·s]
–	997.2	72.75	1.002
